# Experimental data taken from PubChem BioAssay (NCI).
#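 Five concentrations, 48 hours, 96-well plates. Definition used: TGI = concentration required for complete inhibition of growth.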
# Assays:
# Assay in all cases: NCI-60 cell line screen, 48 h
# PC-3 prostate = system: PC-3 prostate
# TK-10 renal = system: TK-10 renal
# HCT-116 colon = system: HCT-116 colon
# HCT-15 colon = system: HCT-15 colon
# UACC-62 melanoma = system: UACC-62 melanoma
# SK-MEL-28 melanoma = system: SK-MEL-28 melanoma
# DU-145 prostate = system: DU-145 prostate
# SK-MEL-5 melanoma = system: SK-MEL-5 melanoma
# SN12C renal = system: SN12C renal
# ACHN renal = system: ACHN renal
SMILES,TGI (PC-3 prostate),TGI (TK-10 renal),TGI (HCT-116 colon),TGI (HCT-15 colon),TGI (UACC-62 melanoma),TGI (SK-MEL-28 melanoma),TGI (DU-145 prostate),TGI (SK-MEL-5 melanoma),TGI (SN12C renal),TGI (ACHN renal)
Cn1c(=O)c2c(nc3sc4ncccc4c(=O)n32)n(C)c1=O,> 100 µM,> 100 µM,> 100 µM,> 100 µM,> 100 µM,> 100 µM,> 100 µM,> 100 µM,> 100 µM,> 100 µM
O=C(CN1CCCC1)Nc1ccc2sc3ccccc3c(=O)c2n1,57.4 µM,> 100 µM,68.3 µM,> 100 µM,36.6 µM,39.7 µM,> 100 µM,53.4 µM,> 100 µM,31.7 µM
C/C(=C\[C@H]1C[C@@H]([C@@H]2CC[C@]34C[C@]23C=C[C@@H]2[C@@]3(C)CC=C5C[C@@H](c6ccccc6)OC[C@]5(C)[C@@H]3C[C@@H](O)[C@]24C)C(=O)O1)CO,> 55.6 µM,> 56 µM,> 100 µM,25.3 µM,> 71.2 µM,> 100 µM,> 67.9 µM,2.76 µM,5.57 µM,34.8 µM
O=C1C(c2c(O)[nH]c3ccc(S(=O)(=O)N(CCO)CCO)cc23)=Nc2ccccc21,> 100 µM,> 100 µM,> 100 µM,> 100 µM,> 100 µM,> 100 µM,72.3 µM,> 100 µM,> 100 µM,> 100 µM
CCCCC/C(=N\c1nc[nH]c1C(N)=O)OCC,> 100 µM,> 100 µM,> 100 µM,> 100 µM,> 100 µM,> 100 µM,> 100 µM,> 100 µM,> 100 µM,> 100 µM
CC[C@]12C=CCN3CCC4(c5cc(N=Nc6ccc([N+](=O)[O-])cc6)c(OC)cc5N(C)[C@H]4[C@@](O)(C(=O)OC)[C@@H]1OC(C)=O)[C@@H]32 (stereo not given in full),46.1 µM,63 µM,24.6 µM,57.8 µM,> 100 µM,> 100 µM,> 100 µM,50.1 µM,59.8 µM,67.8 µM
CC1(c2nc3cc(Cl)c(Cl)cc3[nH]2)CCC(C(=O)O)C(C)(C)O1 (stereo not given),> 100 µM,> 100 µM,> 100 µM,> 100 µM,> 100 µM,> 100 µM,> 100 µM,> 100 µM,> 100 µM,> 100 µM
COc1cc(CNC(=O)CCCCCCCCCCSSCCCCCCCCCCC(=O)NCc2ccc(O)c(OC)c2)ccc1O,> 10 µM,> 10 µM,> 10 µM,> 10 µM,> 10 µM,> 10 µM,> 10 µM,> 10 µM,> 10 µM,> 10 µM
Cc1cc(-c2ccc(Cl)cc2)c(C#N)c(=S)n1C1OC(CO)C(O)C(O)C1O (stereo not given),> 100 µM,> 100 µM,> 100 µM,> 100 µM,> 100 µM,> 100 µM,> 100 µM,> 100 µM,> 100 µM,> 100 µM
O=C(CN1C(=O)c2ccccc2C1=O)OCC1CCCN2CCCCC12 (stereo not given),> 100 µM,> 100 µM,> 100 µM,> 100 µM,> 100 µM,> 100 µM,> 100 µM,> 100 µM,> 100 µM,> 100 µM
